Common to all, as to test: Kinase profiling in a biochemical assay panel (mobility shift assays and ELISA), %-inhibition at 1 μM; selectivity entropy
For orientation: ELISA stands for enzyme-linked immunosorbent assay.

The target in assay [1] is T1, panel of more than 300 wild-type and mutant kinases (313 kinase panel) (Homo sapiens, UniProt Q8IW41).
T1 sequence (Q8IW41 1-473): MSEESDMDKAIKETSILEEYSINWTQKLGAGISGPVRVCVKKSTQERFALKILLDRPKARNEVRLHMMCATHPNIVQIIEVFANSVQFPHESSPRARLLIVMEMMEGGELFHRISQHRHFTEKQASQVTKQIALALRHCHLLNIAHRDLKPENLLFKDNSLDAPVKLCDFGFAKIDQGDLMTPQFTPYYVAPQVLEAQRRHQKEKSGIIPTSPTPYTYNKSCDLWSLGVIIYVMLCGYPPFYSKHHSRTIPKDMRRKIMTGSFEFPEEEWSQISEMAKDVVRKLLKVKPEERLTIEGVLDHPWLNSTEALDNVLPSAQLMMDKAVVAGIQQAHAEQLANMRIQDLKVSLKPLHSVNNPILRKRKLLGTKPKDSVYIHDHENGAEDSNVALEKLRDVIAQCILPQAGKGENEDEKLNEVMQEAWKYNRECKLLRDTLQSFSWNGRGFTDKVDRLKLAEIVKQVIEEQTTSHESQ
The note with it: kinase MAPKAPK5; compound at 1 μM.

Assay [2] deals with panel of more than 300 wild-type and mutant kinases (313 kinase panel) (Homo sapiens, UniProt Q14012). The note with it: kinase CaMK1α; 1 μM compound.
Assay [3] deals with T2, panel of more than 300 wild-type and mutant kinases (313 kinase panel) (Homo sapiens, UniProt Q14164).
T2 sequence (Q14164 1-716): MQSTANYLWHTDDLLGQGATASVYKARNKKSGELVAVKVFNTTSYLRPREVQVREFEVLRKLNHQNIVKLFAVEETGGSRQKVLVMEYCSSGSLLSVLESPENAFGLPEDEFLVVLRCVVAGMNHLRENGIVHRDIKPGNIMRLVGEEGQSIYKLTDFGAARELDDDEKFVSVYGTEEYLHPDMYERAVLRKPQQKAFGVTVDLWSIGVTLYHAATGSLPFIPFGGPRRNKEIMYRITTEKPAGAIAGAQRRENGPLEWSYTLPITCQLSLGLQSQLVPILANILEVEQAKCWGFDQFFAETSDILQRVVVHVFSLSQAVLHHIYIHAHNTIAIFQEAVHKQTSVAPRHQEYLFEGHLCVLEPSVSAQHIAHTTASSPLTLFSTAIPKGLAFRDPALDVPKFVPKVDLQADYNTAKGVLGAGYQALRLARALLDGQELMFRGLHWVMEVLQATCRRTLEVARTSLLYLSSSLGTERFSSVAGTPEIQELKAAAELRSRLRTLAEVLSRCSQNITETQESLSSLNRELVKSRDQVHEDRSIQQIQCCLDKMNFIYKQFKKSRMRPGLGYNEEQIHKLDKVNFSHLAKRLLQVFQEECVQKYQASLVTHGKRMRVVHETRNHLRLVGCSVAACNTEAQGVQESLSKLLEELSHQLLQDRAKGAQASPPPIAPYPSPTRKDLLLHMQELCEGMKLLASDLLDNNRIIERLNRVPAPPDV
The settings on record: kinase IKKε; compound at 1 μM.

Assay [4] has as its target panel of more than 300 wild-type and mutant kinases (313 kinase panel) (Homo sapiens, UniProt P53355). The note with it: kinase DAPK1; compound at 1 μM.
The target in assay [5] is panel of more than 300 wild-type and mutant kinases (313 kinase panel) (Homo sapiens, UniProt P16234, T674I).
Sequence of panel of more than 300 wild-type and mutant kinases (313 kinase panel) (Homo sapiens, UniProt P16234, T674I) (P16234 24-1089 T674I): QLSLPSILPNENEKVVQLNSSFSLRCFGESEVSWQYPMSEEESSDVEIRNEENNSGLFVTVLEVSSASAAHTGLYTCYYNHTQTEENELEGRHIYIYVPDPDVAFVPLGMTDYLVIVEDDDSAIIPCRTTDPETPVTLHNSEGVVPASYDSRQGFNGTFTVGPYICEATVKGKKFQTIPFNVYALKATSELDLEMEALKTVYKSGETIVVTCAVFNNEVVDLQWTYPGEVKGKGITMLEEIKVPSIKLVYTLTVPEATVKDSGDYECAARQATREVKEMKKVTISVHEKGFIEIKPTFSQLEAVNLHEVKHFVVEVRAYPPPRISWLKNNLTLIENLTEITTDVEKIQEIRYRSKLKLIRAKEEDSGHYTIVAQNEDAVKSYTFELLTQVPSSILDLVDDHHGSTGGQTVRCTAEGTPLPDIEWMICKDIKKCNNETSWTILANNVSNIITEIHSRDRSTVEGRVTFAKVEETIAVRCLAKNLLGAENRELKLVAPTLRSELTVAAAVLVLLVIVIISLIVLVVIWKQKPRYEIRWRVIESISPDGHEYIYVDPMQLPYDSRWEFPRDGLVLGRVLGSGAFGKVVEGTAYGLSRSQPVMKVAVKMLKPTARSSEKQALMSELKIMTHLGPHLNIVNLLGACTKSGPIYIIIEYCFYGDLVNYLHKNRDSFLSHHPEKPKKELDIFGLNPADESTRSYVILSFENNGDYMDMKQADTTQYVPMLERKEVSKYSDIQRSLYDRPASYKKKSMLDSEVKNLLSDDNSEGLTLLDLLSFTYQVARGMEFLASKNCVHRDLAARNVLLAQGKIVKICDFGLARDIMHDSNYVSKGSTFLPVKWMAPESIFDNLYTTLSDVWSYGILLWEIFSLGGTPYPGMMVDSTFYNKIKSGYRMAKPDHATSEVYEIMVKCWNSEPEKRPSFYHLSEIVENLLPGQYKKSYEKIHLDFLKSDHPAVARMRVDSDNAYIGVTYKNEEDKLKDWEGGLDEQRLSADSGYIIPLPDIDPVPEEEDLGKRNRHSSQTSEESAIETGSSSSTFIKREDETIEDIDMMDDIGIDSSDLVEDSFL
For assay [6], the target named is panel of more than 300 wild-type and mutant kinases (313 kinase panel) (Homo sapiens, UniProt O96013).
In assay [7] the target is panel of more than 300 wild-type and mutant kinases (313 kinase panel) (Homo sapiens, UniProt P16591). The settings on record: kinase FER; compound at 1 μM.
Sequence of panel of more than 300 wild-type and mutant kinases (313 kinase panel) (Homo sapiens, UniProt P16591) (P16591 whole entry, change not shown): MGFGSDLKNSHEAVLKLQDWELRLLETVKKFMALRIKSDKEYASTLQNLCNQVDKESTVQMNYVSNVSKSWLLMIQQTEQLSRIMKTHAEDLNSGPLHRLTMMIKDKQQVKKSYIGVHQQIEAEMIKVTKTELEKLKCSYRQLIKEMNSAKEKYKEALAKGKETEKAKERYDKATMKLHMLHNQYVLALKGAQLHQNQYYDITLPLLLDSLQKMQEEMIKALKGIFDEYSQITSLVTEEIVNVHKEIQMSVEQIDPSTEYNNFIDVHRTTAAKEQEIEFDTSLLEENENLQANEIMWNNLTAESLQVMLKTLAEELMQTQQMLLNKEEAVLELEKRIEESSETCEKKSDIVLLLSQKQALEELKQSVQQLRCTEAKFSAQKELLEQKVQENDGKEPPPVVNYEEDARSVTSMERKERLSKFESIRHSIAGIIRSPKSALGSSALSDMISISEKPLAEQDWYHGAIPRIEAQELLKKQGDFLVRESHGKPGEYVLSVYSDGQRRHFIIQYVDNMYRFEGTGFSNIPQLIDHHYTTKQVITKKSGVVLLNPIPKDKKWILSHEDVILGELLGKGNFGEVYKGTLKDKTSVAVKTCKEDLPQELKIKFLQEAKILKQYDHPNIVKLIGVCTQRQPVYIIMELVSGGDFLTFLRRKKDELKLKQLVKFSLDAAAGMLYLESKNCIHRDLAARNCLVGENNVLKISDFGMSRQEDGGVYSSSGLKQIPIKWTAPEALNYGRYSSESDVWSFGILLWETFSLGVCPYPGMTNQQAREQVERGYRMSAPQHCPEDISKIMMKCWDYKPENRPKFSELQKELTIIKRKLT

Turning to `CO[C@H]1C[C@@H]2CC[C@@H](C)[C@@](O)(O2)C(=O)C(=O)N2CCCC[C@H]2C(=O)O[C@H]([C@H](C)C[C@@H]2CC[C@@H](OC(=O)C(C)(CO)CO)[C@H](OC)C2)CC(=O)[C@H](C)/C=C(\C)[C@@H](O)[C@@H](OC)C(=O)[C@H](C)C[C@H](C)/C=C/C=C/C=C/1C` [temsirolimus], in assay [1], the “%-inhibition of MAPKAPK5” value is -9%. Also, the “%-inhibition, CaMK1α” value in assay [2] is given as -6.61%. Further, the “%-inhibition of IKKε” value in assay [3] is reported as -11%. For the same compound, the “%-inhibition of DAPK1” value in assay [4] is -8%. In assay [5] (kinase PDGFRα(T674I), 1 μM), the “%-inhibition of PDGFRα(T674I)” value is reported as -2.73%. Also, in assay [6] (kinase PAK4, 1 μM), the “%-inhibition of PAK4” value is -19%. The “%-inhibition of FER” value in assay [7] is on record as -4%.
In the case of `Cc1cn(-c2cc(NC(=O)c3ccc(C)c(Nc4nccc(-c5cccnc5)n4)c3)cc(C(F)(F)F)c2)cn1` [nilotinib], in assay [1], the “%-inhibition of MAPKAPK5” value is -4.26%. Also, the “%-inhibition, CaMK1α” value in assay [2] is -15%. Moreover, the “%-inhibition of IKKε” value in assay [3] was -2.79%. In addition, the “%-inhibition of DAPK1” value in assay [4] is listed as -11%. In assay [5] (1 µM), the “%-inhibition of PDGFRα(T674I)” value was 45%. Besides, the “%-inhibition of PAK4” value in assay [6] (1 µM) is -21%. Moreover, in assay [7], the “%-inhibition of FER” value was -19%.
